# In ChEMBL document CHEMBL4138142, “Antibacterial 3,6-Disubstituted 4-Hydroxy-5,6-dihydro-2H-pyran-2-ones from Serratia plymuthica MF371-2” (J Nat Prod, 2017):
# Columns and labels:
# [1] = system: Acinetobacter baumannii; experiment: Antibacterial activity against Acinetobacter baumannii LMG1041 after 16 to 24 hrs by broth microdilution method; assay type: functional
# [2] = system: Staphylococcus aureus; experiment: Antibacterial activity against methicillin-resistant Staphylococcus aureus LMG 15975 after 16 to 24 hrs by broth microdilution method; assay type: functional
# [3] = Cytotoxicity against human HepG2 cells after 48 hrs by XTT assay; assay type: cell-based
# [4] = system: Enterococcus faecium; experiment: Antibacterial activity against vancomycin-resistant Enterococcus faecium 7 by dilution susceptibility test; assay type: functional
# [5] = system: Enterococcus faecalis; experiment: Antibacterial activity against vancomycin-resistant Enterococcus faecalis 12 by dilution susceptibility test; assay type: functional
# [6] = system: Pseudomonas aeruginosa; experiment: Antibacterial activity against Pseudomonas aeruginosa LMG6395 by dilution susceptibility test; assay type: functional
# [7] = system: Staphylococcus aureus; experiment: Antibacterial activity against methicillin-resistant Staphylococcus aureus MO17 after 16 to 24 hrs by broth microdilution method; assay type: functional
# [8] = system: Streptococcus pneumoniae; experiment: Antibacterial activity against quinolone-resistant Streptococcus pneumoniae TE 122-024 by dilution susceptibility test; assay type: functional
# [9] = system: Streptococcus pyogenes; experiment: Antibacterial activity against macrolide-sensitive Streptococcus pyogenes 29A-TF by dilution susceptibility test; assay type: functional
# [10] = system: Staphylococcus aureus; experiment: Antibacterial activity against macrolide-resistant Staphylococcus aureus 853E after 16 to 24 hrs by broth microdilution method; assay type: functional
# [11] = system: Staphylococcus aureus; experiment: Antibacterial activity against mupirocin-resistant Staphylococcus aureus V321 after 16 to 24 hrs by broth microdilution method; assay type: functional
# [12] = system: Staphylococcus aureus; experiment: Antibacterial activity against mupirocin-resistant Staphylococcus aureus V308 after 16 to 24 hrs by broth microdilution method; assay type: functional
# [13] = system: Streptococcus pneumoniae; experiment: Antibacterial activity against macrolide-resistant Streptococcus pneumoniae BAA1407 by dilution susceptibility test; assay type: functional
# [14] = system: Streptococcus pneumoniae; experiment: Antibacterial activity against Streptococcus pneumoniae ATCC 49619 by dilution susceptibility test; assay type: functional
# [15] = system: Staphylococcus aureus; experiment: Antibacterial activity against Staphylococcus aureus CCUG 1800 after 16 to 24 hrs by broth microdilution method; assay type: functional
# [16] = system: Staphylococcus aureus; experiment: Antibacterial activity against methicillin-resistant Staphylococcus aureus PICI after 16 to 24 hrs by broth microdilution method; assay type: functional
# [17] = system: Klebsiella pneumoniae; experiment: Antibacterial activity against Klebsiella pneumoniae LMG20218 by dilution susceptibility test; assay type: functional
# [18] = system: Escherichia coli; experiment: Antibacterial activity against Escherichia coli LMG15862 by dilution susceptibility test; assay type: functional
# [19] = system: Enterococcus faecalis; experiment: Antibacterial activity against vancomycin-sensitive Enterococcus faecalis 24 by dilution susceptibility test; assay type: functional
# [20] = system: Mycolicibacterium frederiksbergense; experiment: Antibacterial activity against Mycobacterium frederiksbergense by dilution susceptibility test; assay type: functional
# [21] = system: Staphylococcus aureus; experiment: Antibacterial activity against quinolone-resistant Staphylococcus aureus FR 131 after 16 to 24 hrs by broth microdilution method; assay type: functional
# [22] = system: Bacillus cereus; experiment: Antibacterial activity against Bacillus cereus CCUG 7414 by dilution susceptibility test; assay type: functional
# [23] = system: Staphylococcus epidermidis; experiment: Antibacterial activity against methicillin-resistant Staphylococcus epidermidis TA12 by dilution susceptibility test; assay type: functional
# [24] = system: Staphylococcus aureus; experiment: Antibacterial activity against methicillin-resistant Staphylococcus aureus 4384 after 16 to 24 hrs by broth microdilution method; assay type: functional
# [25] = system: Streptococcus pneumoniae; experiment: Antibacterial activity against macrolide-sensitive Streptococcus pneumoniae SP030 by dilution susceptibility test; assay type: functional
# [26] = system: Streptococcus pneumoniae; experiment: Antibacterial activity against quinolone-sensitive Streptococcus pneumoniae 19A-TN by dilution susceptibility test; assay type: functional
# [27] = system: Streptococcus pyogenes; experiment: Antibacterial activity against macrolide-resistant Streptococcus pyogenes 2 Finland by dilution susceptibility test; assay type: functional
# [28] = Cytotoxicity against human HuH7 cells after 48 hrs by XTT assay; assay type: cell-based, Huh-7
# [29] = system: Streptococcus pyogenes; experiment: Antibacterial activity against macrolide-resistant Streptococcus pyogenes 21 Finland by dilution susceptibility test; assay type: functional
# [30] = system: Staphylococcus aureus; experiment: Antibacterial activity against macrolide-resistant Staphylococcus aureus 56 Japan after 16 to 24 hrs by broth microdilution method; assay type: functional
# [31] = system: Staphylococcus aureus; experiment: Antibacterial activity against Staphylococcus aureus LMG 10147 after 16 to 24 hrs by broth microdilution method; assay type: functional
# [32] = system: Staphylococcus aureus; experiment: Antibacterial activity against mupirocin-resistant Staphylococcus aureus V55 after 16 to 24 hrs by broth microdilution method; assay type: functional
# [33] = system: Staphylococcus aureus; experiment: Antibacterial activity against macrolide-resistant Staphylococcus aureus 6 Holland after 16 to 24 hrs by broth microdilution method; assay type: functional
# [34] = system: Staphylococcus aureus; experiment: Antibacterial activity against macrolide-resistant Staphylococcus aureus PK2 after 16 to 24 hrs by broth microdilution method; assay type: functional
# [35] = Cytotoxicity against human MT4 cells after 48 hrs by XTT assay; assay type: cell-based
# [36] = system: Staphylococcus aureus; experiment: Antibacterial activity against tetracycline-resistant Staphylococcus aureus 4216 after 16 to 24 hrs by broth microdilution method; assay type: functional
# [37] = system: Staphylococcus aureus; experiment: Antibacterial activity against mupirocin-resistant Staphylococcus aureus V86 after 16 to 24 hrs by broth microdilution method; assay type: functional
# [38] = system: Staphylococcus epidermidis; experiment: Antibacterial activity against methicillin-susceptible Staphylococcus epidermidis RO7 by dilution susceptibility test; assay type: functional
# [39] = system: Streptococcus pneumoniae; experiment: Antibacterial activity against macrolide-resistant Streptococcus pneumoniae 158bg by dilution susceptibility test; assay type: functional
# [40] = system: Streptococcus pneumoniae; experiment: Antibacterial activity against tetracycline-resistant Streptococcus pneumoniae TE 122-026 by dilution susceptibility test; assay type: functional
# [41] = system: Streptococcus pneumoniae; experiment: Antibacterial activity against macrolide-resistant Streptococcus pneumoniae 956 by dilution susceptibility test; assay type: functional
# [42] = system: Staphylococcus aureus; experiment: Antibacterial activity against Staphylococcus aureus ATCC 29213 after 16 to 24 hrs by broth microdilution method; assay type: functional
molecule,measurement,setting,value
CCCCCCC[C@@H]1CC(O)=C(C(=O)CCC)C(=O)O1,MIC,[1],> 64 µg/mL
same,MIC,[2],1 to 2 µg/mL
CCCC(=O)C1=C(O)C[C@@H](CC)OC1=O,MIC,[1],> 64 µg/mL
same,CC50 at 48 h,[3],> 100 µg/mL
same,MIC,[2],> 50 µg/mL
CCCCCCCCC[C@@H]1CC(O)=C(C(C)=O)C(=O)O1,MIC,[1],> 64 µg/mL
same,CC50 at 48 h,[3],71 µg/mL
same,MIC,[2],1.5 to 2.5 µg/mL
CCCCCCCCCCC[C@@H]1CC(O)=C(C(=O)CCC)C(=O)O1,MIC,[1],< 4 µg/mL
same,CC50 at 48 h,[3],19 µg/mL
same,MIC,[2],0.1 to 0.2 µg/mL
NC[C@H]1O[C@H](O[C@H]2[C@H](O)[C@@H](O[C@H]3O[C@H](CO)[C@@H](O)[C@H](N)[C@H]3O)[C@H](N)C[C@@H]2N)[C@H](O)[C@@H](O)[C@@H]1O [KANAMYCIN],MIC,[4],> 256 µg/mL
same,MIC,[5],> 256 µg/mL
CN[C@H](CC(C)C)C(=O)N[C@H]1C(=O)N[C@@H](CC(N)=O)C(=O)N[C@H]2C(=O)N[C@H]3C(=O)N[C@H](C(=O)N[C@H](C(=O)O)c4cc(O)cc(O)c4-c4cc3ccc4O)[C@H](O)c3ccc(c(Cl)c3)Oc3cc2cc(c3O[C@@H]2O[C@H](CO)[C@@H](O)[C@H](O)[C@H]2O[C@H]2C[C@](C)(N)[C@H](O)[C@H](C)O2)Oc2ccc(cc2Cl)[C@H]1O [VANCOMYCIN],MIC,[4],> 256 µg/mL
same,MIC,[5],> 256 µg/mL
CCCCCCCCC[C@@H]1CC(O)=C(C(=O)CC)C(=O)O1,MIC,[1],32 to 48 µg/mL
same,CC50 at 48 h,[3],50 µg/mL
same,MIC,[2],0.7 µg/mL
CCCCCCCCC[C@@H]1CC(O)=C(C(=O)CCCCC)C(=O)O1,MIC,[1],4 to 8 µg/mL
same,CC50 at 48 h,[3],15 µg/mL
same,MIC,[2],0.6 to 0.8 µg/mL
GENTAMICIN,MIC,[4],> 256 µg/mL
same,MIC,[5],> 256 µg/mL
CCCCCCCCC[C@@H]1CC(O)=C(C(=O)CCC)C(=O)O1,MIC,[6],> 64 µg/mL
same,MIC,[7],2 µg/mL
same,MIC,[8],8 µg/mL
same,MIC,[1],12 to 24 µg/mL
same,MIC,[9],8 µg/mL
same,MIC,[10],2 µg/mL
same,MIC,[11],0.1 to 0.25 µg/mL
same,MIC,[12],0.1 to 0.25 µg/mL
same,MIC,[13],8 µg/mL
same,MIC,[14],4 µg/mL
same,MIC,[4],2 µg/mL
same,MIC,[5],2 µg/mL
same,MIC,[15],0.25 µg/mL
same,MIC,[16],4 µg/mL
same,MIC,[17],> 64 µg/mL
same,MIC,[18],> 64 µg/mL
same,MIC,[19],2 µg/mL
same,MIC,[20],≤ 0.5 µg/mL
same,MIC,[21],2 µg/mL
same,MIC,[22],≤ 1 µg/mL
same,MIC,[23],2 µg/mL
same,MIC,[24],2 µg/mL
same,MIC,[25],8 µg/mL
same,MIC,[26],8 µg/mL
same,CC50 at 48 h,[3],33 µg/mL
same,MIC,[27],8 µg/mL
same,CC50 at 48 h,[28],40 µg/mL
same,MIC,[29],8 µg/mL
same,MIC,[30],4 µg/mL
same,MIC,[31],0.4 µg/mL
same,MIC,[2],0.8 µg/mL
same,MIC,[32],≤ 0.1 µg/mL
same,MIC,[33],1 µg/mL
same,MIC,[34],2 µg/mL
same,CC50 at 48 h,[35],4.7 µg/mL
same,MIC,[36],2 µg/mL
same,MIC,[37],0.1 to 0.25 µg/mL
same,MIC,[38],1 µg/mL
same,MIC,[39],4 µg/mL
same,MIC,[40],4 µg/mL
same,MIC,[41],4 µg/mL
same,MIC,[42],4 µg/mL
CCCCCCCC[C@@H]1CC(O)=C(C(=O)CCC)C(=O)O1,MIC,[1],24 to 32 µg/mL
same,CC50 at 48 h,[3],30 µg/mL
same,MIC,[2],0.8 to 1.5 µg/mL
CCCCCCCCC[C@@H]1CC(O)=C(C(=O)CCCC)C(=O)O1,MIC,[1],8 to 16 µg/mL
same,CC50 at 48 h,[3],36 µg/mL
same,MIC,[2],< 0.6 µg/mL
NC[C@H]1O[C@H](O[C@H]2[C@H](O)[C@@H](O[C@H]3O[C@H](CO)[C@@H](O)[C@H](N)[C@H]3O)[C@H](N)C[C@@H]2N)[C@H](N)C[C@@H]1O [TOBRAMYCIN],MIC,[4],> 256 µg/mL
same,MIC,[5],> 256 µg/mL
CCCCCCCCCC[C@@H]1CC(O)=C(C(=O)CCC)C(=O)O1,MIC,[1],8 to 16 µg/mL
same,CC50 at 48 h,[3],25 µg/mL
same,MIC,[2],0.6 to 0.8 µg/mL
